{"source": "ChEMBL document CHEMBL4808194", "about": "“Design, synthesis and biological evaluation of novel 2,4-disubstituted quinazoline derivatives targeting H1975 cells via EGFR-PI3K signaling pathway” (Bioorg Med Chem, 2021)", "key": {"[1]": {"system": "NCI-H1975", "assay": "Induction of apoptosis in human NCI-H1975 cells assessed as late apoptotic cells at 4 uM incubated for 48 hrs Annexin V-FITC/PI staining based flow cytometric analysis (reference value: 2.53%)", "type": "functional"}, "[2]": {"system": "NCI-H1975", "assay": "Induction of apoptosis in human NCI-H1975 cells assessed as decrease in Bcl2 level at 2 to 8 uM by western blot analysis", "type": "functional, cell-based", "conditions": "dose 2-8 µM"}, "[3]": {"system": "NCI-H1975", "assay": "Induction of apoptosis in human NCI-H1975 cells assessed as late apoptotic cells at 8 uM incubated for 48 hrs Annexin V-FITC/PI staining based flow cytometric analysis (reference value: 2.53%)", "type": "functional"}, "[4]": {"system": "NCI-H1975", "assay": "Induction of apoptosis in human NCI-H1975 cells assessed as necrotic cells at 4 uM incubated for 48 hrs Annexin V-FITC/PI staining based flow cytometric analysis (reference value: 4.74%)", "type": "functional"}, "[5]": {"system": "MGC-803", "assay": "cells", "type": "functional, cell-based", "conditions": "Homo sapiens, MGC-803, 72 h", "description": "Antiproliferative activity against human MGC-803 cells assessed as inhibition of cell growth incubated for 72 hrs by MTT assay"}, "[6]": {"system": "NCI-H1975", "assay": "Induction of apoptosis in human NCI-H1975 cells assessed as shrunken and broken nuclear morphology at 2 to 8 uM incubated for 48 hrs by DAPI staining based fluorescence microscopic analysis", "type": "functional, cell-based", "conditions": "dose 2-8 µM"}, "[7]": {"system": "NCI-H1975", "assay": "Cell cycle arrest in human NCI-H1975 cells assessed as accumulation at S phase at 2 uM incubated for 24 hrs by propidium iodide staining based flow cytometric analysis (reference value: 30.87%)", "type": "functional"}, "[8]": {"system": "NCI-H1975", "assay": "Inhibition of colony formation in human NCI-H1975 cells assessed as fewer and smaller cell colonies incubated for 7 days by crystal violet staining based microscopic analysis", "type": "functional", "conditions": "dose 0.5-2 µM, time 7.0 day"}, "[9]": {"system": "NCI-H1975", "assay": "Cell cycle arrest in human NCI-H1975 cells assessed as accumulation at G1 phase at 8 uM incubated for 24 hrs by propidium iodide staining based flow cytometric analysis (reference value: 50.56 %)", "type": "functional"}, "[10]": {"system": "NCI-H1975", "assay": "Induction of apoptosis in human NCI-H1975 cells assessed as viable cells at 2 uM incubated for 48 hrs Annexin V-FITC/PI staining based flow cytometric analysis (reference value: 90.9%)", "type": "functional", "conditions": "read-out: Activity"}, "[11]": {"system": "MDA-MB-231", "assay": "cells", "type": "functional, cell-based", "conditions": "Homo sapiens, MDA-MB-231, 72 h"}, "[12]": {"system": "NCI-H1975", "assay": "Induction of apoptosis in human NCI-H1975 cells assessed as early apoptotic cells at 8 uM incubated for 48 hrs Annexin V-FITC/PI staining based flow cytometric analysis (reference value: 1%)", "type": "functional"}, "[13]": {"system": "NCI-H1975", "assay": "Cell cycle arrest in human NCI-H1975 cells assessed as accumulation at S phase at 4 uM incubated for 24 hrs by propidium iodide staining based flow cytometric analysis (reference value: 30.87%)", "type": "functional"}, "[14]": {"system": "NCI-H1975", "assay": "Cell cycle arrest in human NCI-H1975 cells assessed as accumulation at G1 phase at 2 uM incubated for 24 hrs by propidium iodide staining based flow cytometric analysis (reference value: 50.56 %)", "type": "functional"}, "[15]": {"target": "Epidermal growth factor receptor (Homo sapiens) (UniProt P00533)", "sequence (P00533 whole entry)": "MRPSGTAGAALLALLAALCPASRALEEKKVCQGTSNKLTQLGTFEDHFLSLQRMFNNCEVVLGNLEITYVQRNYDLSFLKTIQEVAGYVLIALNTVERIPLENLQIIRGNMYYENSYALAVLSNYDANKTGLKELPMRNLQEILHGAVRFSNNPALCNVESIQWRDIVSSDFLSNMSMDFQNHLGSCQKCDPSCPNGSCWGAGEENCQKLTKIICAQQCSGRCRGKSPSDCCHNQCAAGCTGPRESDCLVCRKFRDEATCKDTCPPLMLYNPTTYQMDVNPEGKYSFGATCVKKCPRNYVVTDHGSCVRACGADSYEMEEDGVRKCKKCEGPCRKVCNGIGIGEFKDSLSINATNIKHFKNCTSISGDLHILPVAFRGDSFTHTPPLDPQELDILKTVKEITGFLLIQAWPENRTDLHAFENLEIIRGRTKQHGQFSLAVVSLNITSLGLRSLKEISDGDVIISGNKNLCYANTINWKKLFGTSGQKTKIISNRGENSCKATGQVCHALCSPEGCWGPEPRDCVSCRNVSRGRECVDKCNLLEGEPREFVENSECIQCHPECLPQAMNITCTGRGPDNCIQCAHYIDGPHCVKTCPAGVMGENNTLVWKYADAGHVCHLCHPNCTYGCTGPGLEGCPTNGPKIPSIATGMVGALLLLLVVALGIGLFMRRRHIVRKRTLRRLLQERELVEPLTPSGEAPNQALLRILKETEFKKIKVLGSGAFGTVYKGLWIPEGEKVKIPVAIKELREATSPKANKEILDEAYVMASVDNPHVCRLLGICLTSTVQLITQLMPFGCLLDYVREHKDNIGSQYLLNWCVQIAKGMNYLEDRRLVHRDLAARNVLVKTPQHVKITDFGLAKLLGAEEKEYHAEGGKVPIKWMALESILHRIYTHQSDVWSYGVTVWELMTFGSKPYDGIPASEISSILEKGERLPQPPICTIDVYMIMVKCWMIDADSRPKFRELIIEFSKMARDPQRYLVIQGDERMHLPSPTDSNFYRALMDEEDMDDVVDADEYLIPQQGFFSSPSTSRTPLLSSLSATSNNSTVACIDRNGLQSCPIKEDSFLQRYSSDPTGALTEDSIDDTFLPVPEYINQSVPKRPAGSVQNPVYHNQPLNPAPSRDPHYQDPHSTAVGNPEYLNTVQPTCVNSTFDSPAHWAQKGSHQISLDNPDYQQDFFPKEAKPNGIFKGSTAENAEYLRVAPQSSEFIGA", "assay": "Inhibition of EGFR in human NCI-H1975 cells assessed as reduction in PI3K phosphorylation level by Western blot analysis", "type": "cell-based", "conditions": "dose 2-8 µM"}, "[16]": {"system": "NCI-H1975", "assay": "Cell cycle arrest in human NCI-H1975 cells assessed as accumulation at S phase at 8 uM incubated for 24 hrs by propidium iodide staining based flow cytometric analysis (reference value: 30.87%)", "type": "functional"}, "[17]": {"system": "NCI-H1975", "assay": "Cell cycle arrest in human NCI-H1975 cells assessed as accumulation at G2 phase at 2 uM incubated for 24 hrs by propidium iodide staining based flow cytometric analysis (reference value: 18.57 %)", "type": "functional"}, "[18]": {"system": "NCI-H1975", "assay": "cells", "type": "functional, cell-based", "conditions": "Homo sapiens, NCI-H1975, 72 h", "description": "Antiproliferative activity against human NCI-H1975 cells assessed as inhibition of cell growth incubated for 72 hrs by MTT assay"}, "[19]": {"system": "NCI-H1975", "assay": "Induction of apoptosis in human NCI-H1975 cells assessed as increase in p53 level at 2 to 8 uM by western blot analysis", "type": "functional, cell-based", "conditions": "dose 2-8 µM"}, "[20]": {"system": "NCI-H1975", "assay": "Inhibition of cell migration in human NCI-H1975 cells incubated for 72 hrs by scratch wound healing assay", "type": "functional, cell-based", "conditions": "dose 0.5-2 µM"}, "[21]": {"system": "PC-3", "assay": "cells", "type": "functional, cell-based", "conditions": "Homo sapiens, PC-3, 72 h", "description": "Antiproliferative activity against human PC-3 cells assessed as inhibition of cell growth incubated for 72 hrs by MTT assay"}, "[22]": {"system": "NCI-H1975", "assay": "Induction of apoptosis in human NCI-H1975 cells assessed as early apoptotic cells at 2 uM incubated for 48 hrs Annexin V-FITC/PI staining based flow cytometric analysis (reference value: 1%)", "type": "functional"}, "[23]": {"system": "NCI-H1975", "assay": "Induction of apoptosis in human NCI-H1975 cells assessed as early apoptotic cells at 4 uM incubated for 48 hrs Annexin V-FITC/PI staining based flow cytometric analysis (reference value: 1%)", "type": "functional"}, "[24]": {"system": "NCI-H1975", "assay": "Induction of ROS generation in human NCI-H1975 cells assessed increase in ROS level at 2 to 8 uM incubated for 48 hrs by DHE staining based fluorescence microscopy", "type": "functional, cell-based", "conditions": "dose 2-8 µM"}, "[25]": {"system": "NCI-H1975", "assay": "Induction of apoptosis in human NCI-H1975 cells assessed as viable cells at 8 uM incubated for 48 hrs Annexin V-FITC/PI staining based flow cytometric analysis (reference value: 90.9%)", "type": "functional", "conditions": "read-out: Activity"}, "[26]": {"target": "Epidermal growth factor receptor (Homo sapiens) (UniProt P00533)", "assay": "Inhibition of EGFR in human NCI-H1975 cells assessed as reduction in EGFR phosphorylation level by Western blot analysis", "type": "cell-based", "conditions": "dose 2-8 µM"}, "[27]": {"system": "NCI-H1975", "assay": "Cell cycle arrest in human NCI-H1975 cells assessed as accumulation at G1 phase at 4 uM incubated for 24 hrs by propidium iodide staining based flow cytometric analysis (reference value: 50.56 %)", "type": "functional"}, "[28]": {"system": "NCI-H1975", "assay": "Induction of apoptosis in human NCI-H1975 cells assessed as increase in Bax level at 2 to 8 uM by western blot analysis", "type": "functional, cell-based", "conditions": "dose 2-8 µM"}, "[29]": {"system": "NCI-H1975", "assay": "Cell cycle arrest in human NCI-H1975 cells assessed as accumulation at G2 phase at 4 uM incubated for 24 hrs by propidium iodide staining based flow cytometric analysis (reference value: 18.57 %)", "type": "functional"}, "[30]": {"system": "NCI-H1975", "assay": "Induction of apoptosis in human NCI-H1975 cells assessed as late apoptotic cells at 2 uM incubated for 48 hrs Annexin V-FITC/PI staining based flow cytometric analysis (reference value: 2.53%)", "type": "functional"}, "[31]": {"system": "NCI-H1975", "assay": "Induction of apoptosis in human NCI-H1975 cells assessed as viable cells at 4 uM incubated for 48 hrs Annexin V-FITC/PI staining based flow cytometric analysis (reference value: 90.9%)", "type": "functional", "conditions": "read-out: Activity"}, "[32]": {"system": "NCI-H1975", "assay": "Cell cycle arrest in human NCI-H1975 cells assessed as accumulation at G2 phase at 8 uM incubated for 24 hrs by propidium iodide staining based flow cytometric analysis (reference value: 18.57 %)", "type": "functional"}, "[33]": {"system": "NCI-H1975", "assay": "Induction of apoptosis in human NCI-H1975 cells assessed as necrotic cells at 8 uM incubated for 48 hrs Annexin V-FITC/PI staining based flow cytometric analysis (reference value: 4.74%)", "type": "functional"}, "[34]": {"system": "NCI-H1975", "assay": "Induction of apoptosis in human NCI-H1975 cells assessed as necrotic cells at 2 uM incubated for 48 hrs Annexin V-FITC/PI staining based flow cytometric analysis (reference value: 4.74%)", "type": "functional"}}, "note": "Calls of active or inactive are those of the source. The calls are words filed in the database; no cut-off is given here."}
{"molecule": "C=CC(=O)Nc1cccc(NC(=O)CSc2nc(Nc3cccc(F)c3)c3ccccc3n2)c1", "values": [{"measurement": "Activity", "setting": "[1]", "value": 14.2, "unit": "%"}, {"measurement": "Activity", "setting": "[2]", "value": "Active"}, {"measurement": "Activity", "setting": "[3]", "value": 32.3, "unit": "%"}, {"measurement": "Activity", "setting": "[4]", "value": 12.4, "unit": "%"}, {"measurement": "IC50", "setting": "[5]", "value": 6.25, "unit": "µM"}, {"measurement": "Activity", "setting": "[6]", "value": "Active"}, {"measurement": "Activity", "setting": "[7]", "value": 28.59, "unit": "%"}, {"measurement": "inhibition", "setting": "[8]", "value": "Dose-Dependent Effect"}, {"measurement": "Activity", "setting": "[9]", "value": 63.16, "unit": "%"}, {"measurement": "viability at 2 µM", "setting": "[10]", "value": 78.5, "unit": "%"}, {"measurement": "IC50", "setting": "[11]", "value": 8.16, "unit": "µM"}, {"measurement": "Activity", "setting": "[12]", "value": 18.2, "unit": "%"}, {"measurement": "Activity", "setting": "[13]", "value": 32.22, "unit": "%"}, {"measurement": "Activity", "setting": "[14]", "value": 55.32, "unit": "%"}, {"measurement": "inhibition", "setting": "[15]", "value": "Dose-Dependent Effect"}, {"measurement": "Activity", "setting": "[16]", "value": 33.44, "unit": "%"}, {"measurement": "Activity", "setting": "[17]", "value": 16.09, "unit": "%"}, {"measurement": "IC50", "setting": "[18]", "value": 2030, "unit": "nM"}, {"measurement": "Activity", "setting": "[19]", "value": "Active"}, {"measurement": "inhibition", "setting": "[20]", "value": "Dose-Dependent Effect"}, {"measurement": "IC50", "setting": "[21]", "value": 5.37, "unit": "µM"}, {"measurement": "Activity", "setting": "[22]", "value": 7.91, "unit": "%"}, {"measurement": "Activity", "setting": "[23]", "value": 9.73, "unit": "%"}, {"measurement": "Activity", "setting": "[24]", "value": "Active"}, {"measurement": "viability at 8 µM", "setting": "[25]", "value": 53.4, "unit": "%"}, {"measurement": "inhibition", "setting": "[26]", "value": "Dose-Dependent Effect"}, {"measurement": "Activity", "setting": "[27]", "value": 62.46, "unit": "%"}, {"measurement": "Activity", "setting": "[28]", "value": "Active"}, {"measurement": "Activity", "setting": "[29]", "value": 5.32, "unit": "%"}, {"measurement": "Activity", "setting": "[30]", "value": 8.83, "unit": "%"}, {"measurement": "viability at 4 µM", "setting": "[31]", "value": 63.7, "unit": "%"}, {"measurement": "Activity", "setting": "[32]", "value": 3.4, "unit": "%"}, {"measurement": "Activity", "setting": "[33]", "value": 14.3, "unit": "%"}, {"measurement": "Activity", "setting": "[34]", "value": 4.75, "unit": "%"}]}
